Experimental data taken from ChEMBL document CHEMBL1201862, “PubChem BioAssay data set” (2004).
Calls of active or inactive are those of the source. Cut-off read from the data, not from the text of the source, for most assays here: actives have a measured IC50 and inactives only a lower limit.

How the values were obtained:
[1] = molecular target: T1, Tyrosine-protein phosphatase non-receptor type 7 (Homo sapiens, UniProt P35236); assay type: functional
T1 sequence (P35236 whole entry): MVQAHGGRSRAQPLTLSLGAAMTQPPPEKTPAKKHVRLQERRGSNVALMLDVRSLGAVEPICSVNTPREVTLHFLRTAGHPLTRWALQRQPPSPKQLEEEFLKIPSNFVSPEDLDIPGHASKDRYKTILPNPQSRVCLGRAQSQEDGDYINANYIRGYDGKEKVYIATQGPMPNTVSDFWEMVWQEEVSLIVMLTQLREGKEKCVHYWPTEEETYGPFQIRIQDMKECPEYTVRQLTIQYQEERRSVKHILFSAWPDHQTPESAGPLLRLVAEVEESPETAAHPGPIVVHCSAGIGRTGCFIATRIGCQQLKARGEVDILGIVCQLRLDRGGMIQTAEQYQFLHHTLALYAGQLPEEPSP

[2] = molecular target: T2, Tyrosine-protein phosphatase non-receptor type 22 (Homo sapiens, UniProt Q9Y2R2); assay type: functional
T2 sequence (Q9Y2R2 whole entry): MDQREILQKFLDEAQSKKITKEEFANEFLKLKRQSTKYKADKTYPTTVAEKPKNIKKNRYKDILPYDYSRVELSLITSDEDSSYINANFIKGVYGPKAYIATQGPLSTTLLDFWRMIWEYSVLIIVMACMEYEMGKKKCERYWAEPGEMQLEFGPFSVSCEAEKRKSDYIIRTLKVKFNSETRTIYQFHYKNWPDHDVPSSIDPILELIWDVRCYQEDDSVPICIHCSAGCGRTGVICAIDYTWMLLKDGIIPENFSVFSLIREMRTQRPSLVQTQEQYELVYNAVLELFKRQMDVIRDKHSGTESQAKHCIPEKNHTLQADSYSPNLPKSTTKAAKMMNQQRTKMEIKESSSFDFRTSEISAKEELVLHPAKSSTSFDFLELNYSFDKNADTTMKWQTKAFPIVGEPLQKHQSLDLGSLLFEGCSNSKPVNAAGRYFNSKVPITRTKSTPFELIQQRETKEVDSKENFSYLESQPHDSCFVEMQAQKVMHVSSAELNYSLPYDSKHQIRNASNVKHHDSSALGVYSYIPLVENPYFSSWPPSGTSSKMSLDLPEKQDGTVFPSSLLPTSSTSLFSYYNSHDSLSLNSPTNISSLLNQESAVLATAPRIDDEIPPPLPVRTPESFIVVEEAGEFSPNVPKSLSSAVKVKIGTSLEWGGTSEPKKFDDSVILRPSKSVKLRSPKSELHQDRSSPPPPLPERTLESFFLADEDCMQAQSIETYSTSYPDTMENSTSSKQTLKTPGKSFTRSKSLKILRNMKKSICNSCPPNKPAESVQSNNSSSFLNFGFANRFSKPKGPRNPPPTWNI

[3] = molecular target: T2, Tyrosine-protein phosphatase non-receptor type 22; assay type: functional; remark: listed apart in the source
Coagulation factor XII = molecular target: T3, Coagulation factor XII (Homo sapiens, UniProt P00748); assay type: functional;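 note: activated factor XIIa alpha cleaving a fluorogenic AMC peptide substrate; inhibitor potency from loss of enzyme activity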
T3 sequence (P00748 whole entry): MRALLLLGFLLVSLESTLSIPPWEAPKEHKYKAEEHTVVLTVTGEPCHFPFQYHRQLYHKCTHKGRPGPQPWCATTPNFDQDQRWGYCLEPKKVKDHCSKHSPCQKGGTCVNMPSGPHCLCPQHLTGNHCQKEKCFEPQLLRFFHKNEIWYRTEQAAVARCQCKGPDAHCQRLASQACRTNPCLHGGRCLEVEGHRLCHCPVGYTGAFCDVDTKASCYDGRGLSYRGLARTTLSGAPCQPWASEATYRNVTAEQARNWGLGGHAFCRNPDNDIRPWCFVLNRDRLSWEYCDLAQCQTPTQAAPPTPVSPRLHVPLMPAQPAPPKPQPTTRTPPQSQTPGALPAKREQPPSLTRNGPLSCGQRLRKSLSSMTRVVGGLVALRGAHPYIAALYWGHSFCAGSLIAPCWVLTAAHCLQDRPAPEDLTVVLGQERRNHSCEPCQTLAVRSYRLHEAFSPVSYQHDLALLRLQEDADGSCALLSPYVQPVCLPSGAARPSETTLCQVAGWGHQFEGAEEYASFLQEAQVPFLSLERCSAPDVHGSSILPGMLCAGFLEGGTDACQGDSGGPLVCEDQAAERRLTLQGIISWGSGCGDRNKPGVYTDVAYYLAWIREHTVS

[4] = molecular target: Eukaryotic translation initiation factor 4H (Homo sapiens, UniProt Q15056); test: eIF4H inhibition in translation initiation, SAR follow-up (AID 435011); assay type: functional
[5] = molecular target: Polyadenylate-binding protein 1 (Homo sapiens, UniProt P11940); test: PABP inhibition in translation initiation, SAR follow-up (AID 435018); assay type: functional
Sequence of Polyadenylate-binding protein 1 (P11940 whole entry): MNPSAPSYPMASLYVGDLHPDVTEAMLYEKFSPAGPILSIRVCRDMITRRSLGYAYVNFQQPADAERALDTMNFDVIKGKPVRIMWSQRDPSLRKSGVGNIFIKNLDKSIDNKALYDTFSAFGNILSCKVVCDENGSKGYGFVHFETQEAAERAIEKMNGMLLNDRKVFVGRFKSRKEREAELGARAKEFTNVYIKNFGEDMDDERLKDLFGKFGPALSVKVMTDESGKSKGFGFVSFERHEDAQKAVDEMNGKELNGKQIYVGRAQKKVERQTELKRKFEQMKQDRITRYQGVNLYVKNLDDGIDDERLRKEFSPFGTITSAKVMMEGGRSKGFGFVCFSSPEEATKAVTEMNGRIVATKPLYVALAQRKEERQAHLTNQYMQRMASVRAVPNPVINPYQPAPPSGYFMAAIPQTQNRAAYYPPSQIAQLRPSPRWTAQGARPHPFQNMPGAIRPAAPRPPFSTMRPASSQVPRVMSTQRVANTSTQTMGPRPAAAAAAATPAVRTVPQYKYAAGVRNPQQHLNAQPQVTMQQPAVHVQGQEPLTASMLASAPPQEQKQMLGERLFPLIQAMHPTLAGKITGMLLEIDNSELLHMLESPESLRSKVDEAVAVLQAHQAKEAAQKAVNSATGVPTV

[6] = molecular target: Heat shock protein HSP 90-alpha (Homo sapiens, UniProt P07900); assay type: functional, organism-based
[7] = molecular target: T4, G-protein coupled receptor 55 (Homo sapiens, UniProt Q9Y2T6); test: GPR55 antagonists blocking LPI-driven arrestin recruitment, primary screen, imaging, U2OS, beta-arrestin-GFP, LPI agonist (AID 2013); assay type: functional;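 note: antagonist potency measured as reduced agonist-driven arrestin aggregation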
T4 sequence (Q9Y2T6 whole entry): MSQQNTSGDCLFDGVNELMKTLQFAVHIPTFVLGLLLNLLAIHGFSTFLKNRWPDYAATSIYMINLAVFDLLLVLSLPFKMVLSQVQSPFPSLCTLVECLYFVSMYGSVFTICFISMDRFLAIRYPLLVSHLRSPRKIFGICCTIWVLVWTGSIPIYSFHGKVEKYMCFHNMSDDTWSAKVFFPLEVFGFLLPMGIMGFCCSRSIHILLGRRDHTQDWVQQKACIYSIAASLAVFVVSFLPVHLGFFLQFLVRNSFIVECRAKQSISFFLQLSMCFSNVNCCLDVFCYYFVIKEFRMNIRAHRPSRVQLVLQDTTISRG

[8] = molecular target: T4, G-protein coupled receptor 55; test: GPR55 agonists via beta-arrestin recruitment, primary screen, imaging, U2OS cells, beta-arrestin-GFP redistribution (AID 1961); assay type: functional

**Q.** Which results are given for `COc1ccc2c(-c3ccccc3)cc(N3CCOCC3)nc2c1`?
**A.** IC50 [1]: > 79.4 µM (inactive); IC50 [2]: > 79.4 µM (inactive); IC50 [3]: > 79.4 µM (inactive)

**Q.** For `CNC(=O)COC(=O)c1cc(-c2ccco2)nc2ccccc12`, which IC50 (Coagulation factor XII) is on record?
**A.** > 50 µM (inactive)

**Q.** How did the IC50 (Coagulation factor XII) turn out when `CCOC(=O)CNC(=O)Cn1cnc2c(nnn2-c2cccc(Cl)c2)c1=O` was run?
**A.** > 50 µM (inactive)

**Q.** Which results are given for `COc1ccc([N+](=O)[O-])cc1NC(=O)COC(=O)c1ccc(NC(N)=O)cc1`?
**A.** IC50 [4]: > 100 µM (inactive); IC50 [5]: > 100 µM (inactive)

**Q.** How did the IC50 [4] turn out when `O=C(CSc1ccc(-c2ccco2)nn1)N1CCCCCC1` was run?
**A.** 69.4 µM (active)

**Q.** And the IC50 [5]?
**A.** > 100 µM (inactive)

**Q.** For `CC(C)(C)C(=O)C(Cl)C(=O)Nc1ccccc1` (configuration not stated), which AC50 [6] is on record?
**A.** 1.05 µM (active)

**Q.** And the IC50 [7]?
**A.** 0.696 µM (active)

**Q.** Which EC50 [8] does the source give for `COc1ccc(-c2n(CC(=O)OC3CC(C)CCC3C(C)C)c3ccccc3[n+]2C)cc1` (configuration not stated) here?
**A.** > 32 µM (inactive)
